In patent US20070009593A1, “Methods of treating cancer” (Indianan University Advanced Research, priority 2002, published 2007):

Assays:
[1] = in vivo; settings: mouse, ip
[2] = system: MDA-MD-435 cells; assay: proliferation assay, MTT, 24 hours; type: cell-based; settings: Homo sapiens, 24 hours exposure, averaging 2 experiments
Protocol: Proliferation assays were done by plating cells in a 96 well plate at […] for the 231 cells and 5×10^3 cells per well for the 435 cells. The cells were allowed to attach and grow for 24 hours. […] The cells were allowed to grow for 24 hours and the number of viable cells was measured by MTT assay.

[3] = system: HUVEC; assay: HUVEC cell spreading assay; type: cell-based, human; settings: 40 μM
Protocol: Cells were fixed in 3.7% formaldehyde in PBS, blocked and stained with Oregon-green phalloidin 514 (Molecular Probes), and then digitally photographed using a Zeiss inverted fluorescence microscope equipped with a CCD camera. Cell areas were measured on the digital images using the Spot program (Diagnostic Imaging).

[4] = system: MDA-436IκBSR (super-repressor of NF-κB over-expressed); assay: MTT assay, breast cancer line; type: cell-based; settings: Homo sapiens, read-out: Ritonavir IC50
[5] = system: breast cancer lines; assay: Annexin V/propidium iodide flow cytometry; type: cell-based, human; settings: at the ritonavir IC50 and IC80
[6] = system: 436 with expression of IκB α super-repressor of NF-κB; assay: clonogenic assay (LD50), ritonavir sensitivity; type: cell-based, human; settings: 436 expressing IκB α super-repressor of NF-κB
From the text: This finding is consistent with the implication of signaling pathways in the resistance of breast cancer cell lines to chemotherapy (Patel et al., Oncogene 19:4159-4169).
(§1) We note that the IC50 is derived from MTT assays, while the LD50 is derived from clonogenic assays.

[7] = system: breast cancer lines; assay: propidium iodide flow cytometry; type: cell-based, human; settings: at the IC50 concentration of ritonavir
[8] = system: MDA-MB-231 (231); assay: clonogenic assay (LD50), ritonavir sensitivity; type: cell-based, human; settings: 231 cells
From the text: (§2) MCF7 and MDA-MB-435 (435) had relatively low m-calpain levels, whereas MDA-MB-231 (231), MDA-MB-436 (436) and Caco 2 had relatively high m-calpain levels.
as §1

[9] = system: MDA-MB-436 (436); assay: clonogenic assay (LD50), ritonavir sensitivity; type: cell-based, human; settings: 436 cells
From the text: as §2, §1

[10] = system: MCF7; assay: clonogenic assay (LD50), ritonavir sensitivity; type: cell-based, human
From the text: as §2, §1

[11] = system: MDA-MB-435 (435); assay: clonogenic assay (LD50), ritonavir sensitivity; type: cell-based, human; settings: 435 cells
From the text: as §2, §1

[12] = system: HUVEC; assay: HUVEC tubule formation assay; type: cell-based; settings: Homo sapiens, 72 h, fibrin gel, VEGF and bFGF, counted at three days, read-out: IC50, formation of new endothelial cell tubules
Protocol: Endothelial cell tubule formation in a fibrin clot is an analog of angiogenesis and was used to assay angiogenesis inhibitors (Brown et al., Lab. Investig. 75:539, 1996). HUVEC were coated on Cytodex™ microcarrier beads (Pharmacia) at a density of 30 HUVEC per bead, in a siliconized dish containing HUVEC complete medium, for 24 hours. […] Tubules were counted at three days.

[13] = molecular target: T1, m-calpain (Homo sapiens, UniProt P17655); assay: ionomycin activated m-calpain activity in Caco 2A cells; type: cell-based; settings: 0, 5, 10, 20, and 120 μM, FIG. 3
T1 construct: endogenous in cells; host or cells: Caco 2A
Protocol: (The Caco 2a calls were treated and analyzed as in Example 4).

T1 sequence (P17655 20-700 limits assumed): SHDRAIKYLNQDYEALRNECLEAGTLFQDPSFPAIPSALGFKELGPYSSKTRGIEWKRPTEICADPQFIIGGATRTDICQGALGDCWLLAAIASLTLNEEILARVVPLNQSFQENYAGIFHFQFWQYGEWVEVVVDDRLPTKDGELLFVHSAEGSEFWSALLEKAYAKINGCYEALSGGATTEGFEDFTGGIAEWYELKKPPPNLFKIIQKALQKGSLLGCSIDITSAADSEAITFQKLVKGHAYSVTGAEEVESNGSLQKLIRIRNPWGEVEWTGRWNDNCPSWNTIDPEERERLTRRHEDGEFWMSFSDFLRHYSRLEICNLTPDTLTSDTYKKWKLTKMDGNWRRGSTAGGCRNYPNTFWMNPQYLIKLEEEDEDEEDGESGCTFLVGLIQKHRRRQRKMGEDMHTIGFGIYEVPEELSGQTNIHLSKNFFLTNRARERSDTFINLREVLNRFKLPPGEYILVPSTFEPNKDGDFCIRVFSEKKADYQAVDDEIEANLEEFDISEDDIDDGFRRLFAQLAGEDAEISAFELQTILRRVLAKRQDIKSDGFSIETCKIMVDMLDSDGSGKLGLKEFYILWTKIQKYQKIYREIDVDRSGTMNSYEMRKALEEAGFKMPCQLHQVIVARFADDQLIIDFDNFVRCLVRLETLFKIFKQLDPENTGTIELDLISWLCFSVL
T1 sequence (P04632 whole entry partner): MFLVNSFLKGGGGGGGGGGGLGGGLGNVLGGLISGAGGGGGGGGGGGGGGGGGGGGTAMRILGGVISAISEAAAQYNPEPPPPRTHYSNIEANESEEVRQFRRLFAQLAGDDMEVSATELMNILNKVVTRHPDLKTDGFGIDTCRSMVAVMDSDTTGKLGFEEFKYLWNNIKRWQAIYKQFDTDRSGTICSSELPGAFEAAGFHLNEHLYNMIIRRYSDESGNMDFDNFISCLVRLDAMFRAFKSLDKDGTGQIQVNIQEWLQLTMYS

## CC(C)c1nc(CN(C)C(=O)N[C@H](C(=O)N[C@@H](Cc2ccccc2)C[C@H](O)[C@H](Cc2ccccc2)NC(=O)OCc2cncs2)C(C)C)cs1 [Ritonavir, ritonavir]
[1]
  half-life: < 3 h
[2]
  IC50: ~150 µM
[3]; 1 hour of spreading
  reduction of cell area: 15%
[3]; 1 hour spreading on fibronectin
  cell area: 4100±160 μm^2
[4]
  IC50: 26 µM
[5]
  apoptosis: increased apoptosis
[6]
  LD50: 40 µM
[7]
  cell cycle: induces cell cycle arrest
[8]
  LD50: 60 μm
[9]
  LD50: 55 µM
[10]
  LD50: 25 µM
[11]
  LD50: 16 µM
[12]
  IC50: 16 µM
[13]
  inomycin activated m-calpain: dose dependent decrease
